Data from patent US20240016784A1, “Y BOX BINDING PROTEIN 1 INHIBITORS” (Oregon Health & Science University, priority 2020, published 2024).

Tests used:
SN12C = assay: NCI-60 cell line panel; format: cell-based; conditions: Homo sapiens, 48 hours
Excerpt: (§1) FIG. 17: Assay of SU056 in NCI-60 cell line panel.

BT-549 = assay: NCI-60 cell line panel; format: cell-based; conditions: Homo sapiens, 48 hours
Excerpt: as §1

MDA-MB-435 = assay: NCI-60 cell line panel; format: cell-based; conditions: Homo sapiens, 48 hours
Excerpt: as §1

HT29 = assay: NCI-60 cell line panel; format: cell-based; conditions: Homo sapiens, HT-29, 48 hours
Excerpt: as §1

EKVX = assay: NCI-60 cell line panel; format: cell-based; conditions: Homo sapiens, 48 hours
Excerpt: as §1

K-562 = assay: NCI-60 cell line panel; format: cell-based; conditions: Homo sapiens, K562, 48 hours
Excerpt: as §1

NCI-H23 = assay: NCI-60 cell line panel; format: cell-based; conditions: Homo sapiens, 48 hours
Excerpt: as §1

A498 = assay: NCI-60 cell line panel; format: cell-based; conditions: Homo sapiens, 48 hours
Excerpt: as §1

COLO 205 = assay: NCI-60 cell line panel; format: cell-based; conditions: Homo sapiens, 48 hours
Excerpt: as §1

OVCAR-4 = assay: NCI-60 cell line panel; format: cell-based; conditions: Homo sapiens, 48 hours
Excerpt: as §1

SF-539 = assay: NCI-60 cell line panel; format: cell-based; conditions: Homo sapiens, 48 hours
Excerpt: as §1

SF-268 = assay: NCI-60 cell line panel; format: cell-based; conditions: Homo sapiens, 48 hours
Excerpt: as §1

ACHN = assay: NCI-60 cell line panel; format: cell-based; conditions: Homo sapiens, 48 hours
Excerpt: as §1

LOX IMVI = assay: NCI-60 cell line panel; format: cell-based; conditions: Homo sapiens, 48 hours
Excerpt: as §1

MDA-MB-231/ATCC = assay: NCI-60 cell line panel; format: cell-based; conditions: Homo sapiens, 48 hours
Excerpt: as §1

RPMI-8226 = assay: NCI-60 cell line panel; format: cell-based; conditions: Homo sapiens, 48 hours
Excerpt: as §1

HL-60(TB) = assay: NCI-60 cell line panel; format: cell-based; conditions: Homo sapiens, 48 hours
Excerpt: as §1

TK-10 = assay: NCI-60 cell line panel; format: cell-based; conditions: Homo sapiens, 48 hours
Excerpt: as §1

HCC-2998 = assay: NCI-60 cell line panel; format: cell-based; conditions: Homo sapiens, 48 hours
Excerpt: as §1

DU-145 = assay: NCI-60 cell line panel; format: cell-based; conditions: Homo sapiens, 48 hours
Excerpt: as §1

NCI-H460 = assay: NCI-60 cell line panel; format: cell-based; conditions: Homo sapiens, 48 hours
Excerpt: as §1

OVCAR-5 = assay: NCI-60 cell line panel; format: cell-based; conditions: Homo sapiens, 48 hours
Excerpt: as §1

HCT-15 = assay: NCI-60 cell line panel; format: cell-based; conditions: Homo sapiens, 48 hours
Excerpt: as §1

MOLT-4 = assay: NCI-60 cell line panel; format: cell-based; conditions: Homo sapiens, 48 hours
Excerpt: as §1

NCI-H322M = assay: NCI-60 cell line panel; format: cell-based; conditions: Homo sapiens, 48 hours
Excerpt: as §1

T-47D = assay: NCI-60 cell line panel; format: cell-based; conditions: Homo sapiens, T47D, 48 hours
Excerpt: as §1

HCT-116 = assay: NCI-60 cell line panel; format: cell-based; conditions: Homo sapiens, 48 hours
Excerpt: as §1

UO-31 = assay: NCI-60 cell line panel; format: cell-based; conditions: Homo sapiens, 48 hours
Excerpt: as §1

786-0 = assay: NCI-60 cell line panel; format: cell-based; conditions: Homo sapiens, 48 hours
Excerpt: as §1

CAKI-1 = assay: NCI-60 cell line panel; format: cell-based; conditions: Homo sapiens, 48 hours
Excerpt: as §1

UACC-62 = assay: NCI-60 cell line panel; format: cell-based; conditions: Homo sapiens, 48 hours
Excerpt: as §1

SNB-19 = assay: NCI-60 cell line panel; format: cell-based; conditions: Homo sapiens, 48 hours
Excerpt: as §1

SK-MEL-28 = assay: NCI-60 cell line panel; format: cell-based; conditions: Homo sapiens, 48 hours
Excerpt: as §1

NCI/ADR-RES = assay: NCI-60 cell line panel; format: cell-based; conditions: Homo sapiens, 48 hours
Excerpt: as §1

NCI-H522 = assay: NCI-60 cell line panel; format: cell-based; conditions: Homo sapiens, 48 hours
Excerpt: as §1

U251 = assay: NCI-60 cell line panel; format: cell-based; conditions: Homo sapiens, U-251, 48 hours
Excerpt: as §1

HS 578T = assay: NCI-60 cell line panel; format: cell-based; conditions: Homo sapiens, 48 hours
Excerpt: as §1

M14 = assay: NCI-60 cell line panel; format: cell-based; conditions: Homo sapiens, 48 hours
Excerpt: as §1

OVCAR-8 = assay: NCI-60 cell line panel; format: cell-based; conditions: Homo sapiens, 48 hours
Excerpt: as §1

SK-MEL-2 = assay: NCI-60 cell line panel; format: cell-based; conditions: Homo sapiens, 48 hours
Excerpt: as §1

SK-OV-3 = assay: NCI-60 cell line panel; format: cell-based; conditions: Homo sapiens, 48 hours
Excerpt: as §1

MDA-MB-468 = assay: NCI-60 cell line panel; format: cell-based; conditions: Homo sapiens, 48 hours
Excerpt: as §1

IGROV1 = assay: NCI-60 cell line panel; format: cell-based; conditions: Homo sapiens, IGROV-1, 48 hours
Excerpt: as §1

MCF7 = assay: NCI-60 cell line panel; format: cell-based; conditions: Homo sapiens, 48 hours
Excerpt: as §1

NCI-H226 = assay: NCI-60 cell line panel; format: cell-based; conditions: Homo sapiens, 48 hours
Excerpt: as §1

[1] = Liver microsomes metabolic profiling; format: in vitro ADME
Excerpt: (§2) FIGS. 15A-15E. […] SU056 treatment at increasing concentrations dose not challenge the dietary behavior as reflected by change in body weight FIG. 15A) Mice and FIG. 15B) Rat. […] Liver microsomes were used for the purpose of metabolic profiling.

[2] = Tolerability of SU056 at increasing concentrations; format: in vivo; conditions: for death: different concentration; for tolerability: increasing concentrations
Excerpt: as §2

O=C1OCC2=C1C(c1cccc(F)c1)c1cc3c(cc1N2CCO)OCO3 (centres unmarked) [SU056, 9-(3-fluorophenyl)-5-(2-hydroxyethyl)-6,9-dihydro-[1,3]dioxolo[4,5-g]furo[3,4-b]quinolin-8(5H)-one] gave an IC50 (SN12C) of 3.05 µM, an IC50 (BT-549) of 1.46 µM and an IC50 (MDA-MB-435) of 0.187 µM. It also gave an IC50 (HT29) of 1.52 µM, an IC50 (EKVX) of 3.03 µM and an IC50 (K-562) of 0.353 µM. For the same compound, the IC50 (NCI-H23) was 3.96 µM, the IC50 (A498) was 1.11 µM and the IC50 (COLO 205) was 1.46 µM. It also gave an IC50 (OVCAR-4) of 46.8 µM, an IC50 (SF-539) of 1.13 µM and an IC50 (SF-268) of 3.2 µM. For the same compound, the IC50 (ACHN) was 3.03 µM, the IC50 (LOX IMVI) was 2.35 µM and the IC50 (MDA-MB-231/ATCC) was 3.09 µM. For the same compound, the IC50 (RPMI-8226) was 2.28 µM, the IC50 (HL-60(TB)) was 1.26 µM and the IC50 (TK-10) was 15.6 µM. The IC50 (HCC-2998) was 7.06 µM, the IC50 (DU-145) was 2.71 µM and the IC50 (NCI-H460) was 2.08 µM. The IC50 (OVCAR-5) was 4.33 µM, the IC50 (HCT-15) was 1.08 µM and the IC50 (MOLT-4) was 3.02 µM. For the same compound, the IC50 (NCI-H322M) was 4.01 µM, the IC50 (T-47D) was 2.18 µM and the IC50 (HCT-116) was 1.53 µM. It also gave an IC50 (UO-31) of 2.88 µM, an IC50 (786-0) of 1.86 µM and an IC50 (CAKI-1) of 1.24 µM. The IC50 (UACC-62) was 2.25 µM, the IC50 (SNB-19) was 3 µM and the IC50 (SK-MEL-28) was 20.3 µM. The IC50 (NCI/ADR-RES) was 2.02 µM, the IC50 (NCI-H522) was 2.59 µM and the IC50 (U251) was 2.5 µM. The IC50 (HS 578T) was 1.42 µM, the IC50 (M14) was 0.357 µM and the IC50 (OVCAR-8) was 3.18 µM. It also gave an IC50 (SK-MEL-2) of 2.46 µM, an IC50 (SK-OV-3) of 1.73 µM and an IC50 (MDA-MB-468) of 1.12 µM. For the same compound, the IC50 (IGROV1) was 4.19 µM, the IC50 (MCF7) was 1.44 µM and the IC50 (NCI-H226) was 50 µM. The half-life [1] was 40 min, the death ([2]; mice) was “did not cause death” and the tolerability ([2]; mice) was “well tolerated”. For the same compound, the death ([2]; rat) was “did not cause death” and the tolerability ([2]; rat) was “well tolerated”.
